A word on the inhibition: it is the drop in the measured response relative to a control, in per cent. The IC50 is the midpoint of a concentration-inhibition curve. Lower therefore signals greater potency in that assay.

These results are taken from patent US6894073B2, “Use of diterpene compound as a therapeutic agent of inflammation, immune disease or cancer” (Korea Research Institute of Bioscience and Biotechnology, priority 2000, dated 2005).

For experiment [1], the system named is adjuvant arthritis model. The experiment is described as follows: Adjuvant arthritis model, paw volume. It is filed as in vivo, Sprague-Dawley rat. As to conditions: for Inhibition rate (%) of arthritis: day 16-22, paw volume on 23rd day. The method, then: Finding the inhibitory effect of kaurane diterpene compounds on the production of NO, prostaglandin, and TNF, and on the activation of NF-κB in the murine macrophage cells stimulated by LPS, the present inventors investigated the pharmacological efficacy of kaurane diterpene compounds with a adjuvant arthritis model according to the method of Futaki et al. (General Pharmacology, 1993, 24, 105-110). To prepare animal model of the arthritis, 0.05 ml of 0.1% Mycobacterium butyricum suspended in Freud adjuvant (Sigma, USA) was injected intradermally to the left hind paw of the male Sprague-Dawley rat of 180 g weight. On the fifteenth day after injection, the volume of the right paw of the rats was measured using plethysmometer (Ugo-Basile, Italy), and only the rats having arthritis on the right leg were selected. Thereafter, the selected rats were divided into four groups, six rats per each group. Four kinds of kaurane diterpene compounds of the present invention were administered orally to each groups everyday from the sixteenth day to twenty-second day with doses of 3 mg/kg/day, 10 mg/kg/day, and 20 mg/kg/day in the form of the suspended solution with 0.1% methylcellulose. The inhibition rate of arthritis was calculated by comparing the volume of the paw with that of the control on the 23rd day.

Experiment [2] has as its system iNOS protein. The experiment is described as follows: iNOS protein expression, Western blot, LPS-stimulated Raw 264.7 cells. Format: cell-based, murine. The following applies: LPS 1 μg/ml, 18 hours. The method, then: Raw 264.7 murine macrophage cells were treated simultaneously with 1 μg/ml concentrations of LPS and 0.1 μg/ml, 0.3 μg/ml, 1 μg/ml, and 3 μg/ml concentrations of kamebakaurin and were incubated for 18 hours at 37° C. in a 5% CO2 incubator. After preparing total cell lysates from cultured cells using buffer solution for protein extraction of the Example <7-2>, the expression pattern of proteins was assessed by Western blot analysis.

Experiment [3] concerns cIAP-1. The experiment in a line: TNF-α-induced cIAP-1 protein expression, Western blot, MCF-7 and HT-1080 cells. It is filed as cell-based. As to conditions: 1, 5, 10 μg/ml, 20 ng/ml TNF-α 3 hours. The method, then:
(§1) MCF-7 cells and HT-1080 cells were pretreated for 30 minutes with 1 μg/ml, 5 μg/ml, and 10 μg/ml concentrations of four kinds of kaurane diterpene compounds, respectively. After that, 20 ng/ml concentrations of TNF-α were treated for three hours to induce the expression of cIAP-1 and cIAP-2 proteins. Protein extract was prepared from cultured cells using buffer solution for protein extraction consisting of 50 mM Tris-HCL (pH 7.5), 1% Nonidet P40, 150 mM NaCl, 1 mM EDTA, 1 mM phenylmethyl sulfonyl fluoride, […]. 50 μg of protein extract of the control and compound-treated groups was applied to the SDS-polyacrylamide gel electrophoresis. After transferring the proteins into the polyvinylidene difluoride membrane, the membrane was blocked with 5% skim milk for three hours, and were reacted with antibodies against cIAP-1, cIAP-2, Bcl-2, and Bax proteins (Santa Cruz Biochemicals). The membrane was washed with PBS and was reacted with secondary antibody conjugated with horseradish peroxidase. After washing again with PBS, the protein was detected by ECL system (Amersham Pharmacia Biotec).
For orientation: A western blot detects proteins with antibodies after separation by electrophoresis.

Experiment [4] deals with prostaglandin E2. The experiment in a line: Inhibition of prostaglandin E2 production in LPS-stimulated Raw 264.7 cells (enzyme immunometric assay). As to conditions: for PGE2: 1 μg/ml LPS, 16 hours. It is filed as cell-based, murine. The method, then: To investigate whether kaurane diterpene compounds obtained in Example 1 can inhibit the production of prostaglandin, which induces inflammatory reaction, the present inventors measured the amount of prostaglandin E2 accumulated in the culture medium of LPS-stimulated murine macrophage cells, which were treated with four kaurane diterpene compounds, kamebanin, kamebacetal A, kamebakaurin, or exisanin A.
In detail, Raw 264.7 cells in DMEM medium were seeded to a 96-well plate at a cell density of 1×10^5 cells/well and were incubated for 18 hours. Cyclooxygenase-1, the constitutive rate-determining enzyme of the prostaglandin synthesis was inactivated by incubating for 3 hrs with 500 μM of aspirin and each well was washed two times with PBS (phosphate-buffered saline). To each well were added 1 μg/ml of LPS and 3 μg/ml, 0.3 μg/ml, and 0.03 μg/ml concentrations of kaurane diterpene compounds of the present invention and was incubated for 16 hours. After collecting supernatant by centrifugation, the amount of prostaglandin in the culture medium was quantified by enzyme immunometric assay.

The test system of experiment [5] is cIAP-2. The experiment in a line: TNF-α-induced cIAP-2 protein expression, Western blot, MCF-7 and HT-1080 cells. The following applies: 1, 5, 10 μg/ml, 20 ng/ml TNF-α 3 hours. It is filed as cell-based. The method, then:
as §1

In experiment [6] the test system is nitric oxide (NO). The experiment in a line: Inhibition of NO production (nitrite, Griess reagent) in LPS-stimulated Raw 264.7 macrophage cells. It is filed as cell-based, murine. The following applies: for NO: 1 μg/ml LPS, 24 hours. The method, then:
To investigate whether kaurane diterpene compounds obtained in Example 1 can inhibit the production of nitric oxide (NO) which induces apoptosis of the immune and neuron cells, the present inventors measured the amount of nitrite (NO2) accumulated in the culture medium of LPS-stimulated murine macrophage cells, which were treated with four kaurane diterpene compounds, kamebanin, kamebacetal A, kamebakaurin, or exisanin A.
In detail, Raw 264.7 murine macrophage cells (ATCC TIB-71) in DMEM medium were seeded to 96-well plate at a cell density of 1×10^5 cells/well and incubated for 3 hours at 37° C., 5% CO2 incubator. To induce NO synthesis in the macrophage cell, 1 μg/ml of LPS and 3 μg/ml, 0.3 μg/ml, and 0.03 μg/ml of kaurane diterpene compounds of the present invention were added to the medium and the plate was incubated for 24 hours. The amount of NO2, the final oxidation product of NO induced by the LPS in the medium was measured as followed. After collecting and centrifuging incubated medium, 100 μl of Griess reagent was added into 100 μl of each culture medium. Then, the medium was incubated for ten minutes at room temperature and absorbance at 550 nm wavelength was measured. Griess reagent was prepared by mixing a solution, wherein 1% sulfanilamide was dissolved in 5% phosphoric acid, and a solution of 0.1% naphyhylethylenediamine-HCl by a 1:1 ratio. To measure the amount of standard NO synthesis, NaNO2 was serially diluted and the absorbance was measured after reacting it with Griess reagent. From this, the standard curve for the amount of NO production was obtained. The amount of NO production in the culture medium treated with each compound was estimated using standard curve for NO determination.
On the technique in general: Nitrite, measured by Griess reagent, commonly stands in for NO production.

[7] abbreviates: Mus musculus, RAW264.7, LPS-stimulated Raw 264.7 cells.

Turning to `C=C1C(=O)[C@@]23[C@H](O)C[C@@H]4C(C)(C)CC[C@H](O)[C@@]4(CO)[C@@H]2CC[C@@H]1[C@H]3O` [Kamebakaurin, kamebakaurin], the “Inhibition rate (%) of arthritis” value in experiment [1] (3 mg/kg/day oral) was 35 ± 19%; in experiment [1] (10 mg/kg/day oral), 59 ± 11%; in experiment [1] (20 mg/kg/day oral), 71 ± 17%. In addition, in experiment [1] (3, 10, 20 mg/kg/day oral), the “Suppression of arthritis (in words)” value was “suppressed dose-dependently”. The “Expression of iNOS protein” value in experiment [2] (3 μg/ml) is listed as “completely suppressed”; in experiment [2] (0.1-3 μg/ml), “suppressed dose-dependently”. The “Expression of cIAP-1 protein induced by TNF-α” value in experiment [3] was “inhibited”. For the same compound, the results for the “PGE2” value in experiment [4] (0.03 μg/ml compound), in experiment [4] (0.3 μg/ml compound) and in experiment [4] (3 μg/ml compound) were 10.7 ± 1.2 ng/mL, 9.2 ± 0.2 ng/mL and 1.8 ± 0.4 ng/mL, respectively. For the same compound, in experiment [4] (3 μg/ml compound), the “Inhibition rate (%) of prostaglandin E2 production” value was 95.1%. For the same compound, the inhibition at 0.03 µg/mL in experiment [4] (Mus musculus, RAW264.7, 0.03 μg/ml compound, read-out: Inhibition rate (%) of prostaglandin E2 production) is -7.1%; in experiment [6] (Mus musculus, RAW264.7, 0.03 μg/ml compound, read-out: Inhibition rate (%) of NO production), 44.2%. Moreover, the inhibition at 0.3 µg/mL in experiment [4] (Mus musculus, RAW264.7, 0.3 μg/ml compound, read-out: Inhibition rate (%) of prostaglandin E2 production) stood at 9.7%; in experiment [6] (Mus musculus, RAW264.7, 0.3 μg/ml compound, read-out: Inhibition rate (%) of NO production) it was 72.4%. Also, the inhibition at 3 µg/mL was around 95% in experiment [4] (Mus musculus, RAW264.7, 3 μg/ml compound, read-out: Inhibition rate (%) of prostaglandin E2 production) and 99.3% in experiment [6] (Mus musculus, RAW264.7, 3 μg/ml compound, read-out: Inhibition rate (%) of NO production). The IC50 in experiment [4] (setting [7]) was determined as 2.63 µM; in experiment [6] (setting [7]) it was 0.15 µM. Also, the “Expression of cIAP-2 protein induced by TNF-α” value in experiment [5] is “inhibited”. The “NO” value amounted to 29.1 ± 4.2 µM in experiment [6] (0.03 μg/ml compound), 16.1 ± 2.8 µM in experiment [6] (0.3 μg/ml compound) and 3.6 ± 0.7 µM in experiment [6] (3 μg/ml compound).
